Laboratory results as given in the NIST ThermoML archive (doi:10.1021/je400783h).
Numbers after ± are expanded uncertainties.

Legend:
[1] = refractive index (Na D-line) (dimensionless); conditions: 101.33 kPa, Liquid, Standard Abbe refractometry
[2] = relative permittivity at various frequencies (dimensionless); conditions: 101 kPa, Liquid, Frequency=2 MHz, capacitive measurement method

In the case of OCC1CCCO1 (stereo unspecified) [2-tetrahydrofurylmethanol], the refractive index ([1]; 283.15 K) is reported as 1.45646 ± 0.00037, the refractive index ([1]; 285.65 K) is reported as 1.45549 ± 0.00037 and the refractive index ([1]; 288.15 K) is reported as 1.45452 ± 0.00037. For the same molecule, the refractive index ([1]; 290.65 K) was 1.45356 ± 0.00037, the refractive index ([1]; 293.15 K) was 1.45259 ± 0.00037 and the refractive index ([1]; 295.65 K) was 1.45162 ± 0.00037. The refractive index ([1]; 298.15 K) was 1.45063 ± 0.00037, the refractive index ([1]; 300.65 K) was 1.44965 ± 0.00037 and the refractive index ([1]; 303.15 K) was 1.44867 ± 0.00037. It also gave a refractive index ([1]; 305.65 K) of 1.44769 ± 0.00037, a refractive index ([1]; 308.15 K) of 1.44671 ± 0.00037 and a refractive index ([1]; 310.65 K) of 1.44572 ± 0.00037. For the same molecule, the refractive index ([1]; 313.15 K) was 1.44473 ± 0.00037, the refractive index ([1]; 315.65 K) was 1.44375 ± 0.00037 and the refractive index ([1]; 318.15 K) was 1.44274 ± 0.00037. It also gave a refractive index ([1]; 320.65 K) of 1.44176 ± 0.00037, a refractive index ([1]; 323.15 K) of 1.44072 ± 0.00037 and a refractive index ([1]; 325.65 K) of 1.4397 ± 0.00037. It also gave a refractive index ([1]; 328.15 K) of 1.43871 ± 0.00037, a refractive index ([1]; 330.65 K) of 1.43772 ± 0.00037 and a refractive index ([1]; 333.15 K) of 1.43668 ± 0.00037. It also gave a refractive index ([1]; 335.65 K) of 1.43567 ± 0.00037, a refractive index ([1]; 338.15 K) of 1.43466 ± 0.00037 and a relative permittivity ([2]; 278.15 K) of 15.2 ± 0.1. It also gave a relative permittivity ([2]; 280.65 K) of 15 ± 0.1, a relative permittivity ([2]; 283.15 K) of 15 ± 0.1 and a relative permittivity ([2]; 285.65 K) of 14.9 ± 0.1. It also gave a relative permittivity ([2]; 288.15 K) of 14.8 ± 0.1, a relative permittivity ([2]; 290.65 K) of 14.7 ± 0.1 and a relative permittivity ([2]; 293.15 K) of 14.6 ± 0.1. The relative permittivity ([2]; 295.65 K) was 14.5 ± 0.1, the relative permittivity ([2]; 298.15 K) was 14.4 ± 0.1 and the relative permittivity ([2]; 300.65 K) was 14.4 ± 0.1. The relative permittivity ([2]; 303.15 K) was 14.3 ± 0.1, the relative permittivity ([2]; 305.65 K) was 14.2 ± 0.1 and the relative permittivity ([2]; 308.15 K) was 14.1 ± 0.1. The relative permittivity ([2]; 310.65 K) was 14 ± 0.1, the relative permittivity ([2]; 313.15 K) was 13.9 ± 0.1 and the relative permittivity ([2]; 315.65 K) was 13.8 ± 0.1. It also gave a relative permittivity ([2]; 318.15 K) of 13.8 ± 0.1, a relative permittivity ([2]; 320.65 K) of 13.6 ± 0.1 and a relative permittivity ([2]; 323.15 K) of 13.5 ± 0.1. For the same molecule, the relative permittivity ([2]; 325.65 K) was 13.5 ± 0.1, the relative permittivity ([2]; 328.15 K) was 13.4 ± 0.1 and the relative permittivity ([2]; 330.65 K) was 13.3 ± 0.1. For the same molecule, the relative permittivity ([2]; 333.15 K) was 13.2 ± 0.1, the relative permittivity ([2]; 335.65 K) was 13.1 ± 0.1 and the relative permittivity ([2]; 338.15 K) was 13 ± 0.1.
Molecule Cc1ccc(C=O)o1 [5-methylfurfural] has a refractive index ([1]; 283.15 K) of 1.5364 ± 0.00037, a refractive index ([1]; 285.65 K) of 1.53529 ± 0.00037 and a refractive index ([1]; 288.15 K) of 1.53393 ± 0.00037. It also gave a refractive index ([1]; 290.65 K) of 1.53269 ± 0.00037, a refractive index ([1]; 293.15 K) of 1.53144 ± 0.00037 and a refractive index ([1]; 295.65 K) of 1.53019 ± 0.00037. It also gave a refractive index ([1]; 298.15 K) of 1.5289 ± 0.00037, a refractive index ([1]; 300.65 K) of 1.52765 ± 0.00037 and a refractive index ([1]; 303.15 K) of 1.5264 ± 0.00037. The refractive index ([1]; 305.65 K) was 1.52513 ± 0.00037, the refractive index ([1]; 308.15 K) was 1.52385 ± 0.00037 and the refractive index ([1]; 310.65 K) was 1.52257 ± 0.00037. For the same molecule, the refractive index ([1]; 313.15 K) was 1.5213 ± 0.00037, the refractive index ([1]; 315.65 K) was 1.52 ± 0.00037 and the refractive index ([1]; 318.15 K) was 1.51872 ± 0.00037. It also gave a refractive index ([1]; 320.65 K) of 1.51742 ± 0.00037, a refractive index ([1]; 323.15 K) of 1.51615 ± 0.00037 and a refractive index ([1]; 325.65 K) of 1.51486 ± 0.00037. For the same molecule, the refractive index ([1]; 328.15 K) was 1.51357 ± 0.00037, the refractive index ([1]; 330.65 K) was 1.51229 ± 0.00037 and the refractive index ([1]; 333.15 K) was 1.511 ± 0.00037. For the same molecule, the refractive index ([1]; 335.65 K) was 1.50972 ± 0.00037, the refractive index ([1]; 338.15 K) was 1.50842 ± 0.00037 and the relative permittivity ([2]; 278.15 K) was 45.2 ± 0.2. For the same molecule, the relative permittivity ([2]; 280.65 K) was 44.5 ± 0.2, the relative permittivity ([2]; 283.15 K) was 43.7 ± 0.2 and the relative permittivity ([2]; 285.65 K) was 43 ± 0.2. For the same molecule, the relative permittivity ([2]; 288.15 K) was 42.3 ± 0.2, the relative permittivity ([2]; 290.65 K) was 41.6 ± 0.2 and the relative permittivity ([2]; 293.15 K) was 40.9 ± 0.2. It also gave a relative permittivity ([2]; 295.65 K) of 40.2 ± 0.2, a relative permittivity ([2]; 298.15 K) of 39.4 ± 0.2 and a relative permittivity ([2]; 300.65 K) of 38.7 ± 0.2. For the same molecule, the relative permittivity ([2]; 303.15 K) was 38 ± 0.2, the relative permittivity ([2]; 305.65 K) was 37.2 ± 0.2 and the relative permittivity ([2]; 308.15 K) was 36.4 ± 0.2. For the same molecule, the relative permittivity ([2]; 310.65 K) was 35.8 ± 0.2, the relative permittivity ([2]; 313.15 K) was 35.1 ± 0.2 and the relative permittivity ([2]; 315.65 K) was 34.4 ± 0.2. The relative permittivity ([2]; 318.15 K) was 33.7 ± 0.2, the relative permittivity ([2]; 320.65 K) was 33.6 ± 0.2 and the relative permittivity ([2]; 323.15 K) was 32.4 ± 0.2. For the same molecule, the relative permittivity ([2]; 325.65 K) was 31.7 ± 0.2, the relative permittivity ([2]; 328.15 K) was 31.1 ± 0.2 and the relative permittivity ([2]; 330.65 K) was 30.4 ± 0.2. For the same molecule, the relative permittivity ([2]; 333.15 K) was 29.8 ± 0.2, the relative permittivity ([2]; 335.65 K) was 29.1 ± 0.2 and the relative permittivity ([2]; 338.15 K) was 28.4 ± 0.2.
